Measurements: PubChem BioAssay (NCI)
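Briefly, cells in 96-well plates were exposed to five compound concentrations for 48 h, and endpoints were estimated by linear interpolation. TGI: concentration producing complete growth inhibition.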

Legend:
Assay in all cases: DTP human tumour cell line panel, 48 h
SR leukemia = tested on: SR leukemia
K-562 leukemia = tested on: K-562 leukemia
MDA-MB-231 breast = tested on: MDA-MB-231 breast
SN12C renal = tested on: SN12C renal
SK-MEL-2 melanoma = tested on: SK-MEL-2 melanoma
SF-268 CNS = tested on: SF-268 CNS
PC-3 prostate = tested on: PC-3 prostate
T-47D breast = tested on: T-47D breast
UACC-257 melanoma = tested on: UACC-257 melanoma
HCC-2998 colon = tested on: HCC-2998 colon
SK-MEL-28 melanoma = tested on: SK-MEL-28 melanoma
OVCAR-5 ovarian = tested on: OVCAR-5 ovarian
HOP-92 NSCLC = tested on: HOP-92 NSCLC

| SMILES | TGI (SR leukemia) [µM] | TGI (K-562 leukemia) [µM] | TGI (MDA-MB-231 breast) [µM] | TGI (SN12C renal) [µM] | TGI (SK-MEL-2 melanoma) [µM] | TGI (SF-268 CNS) [µM] | TGI (PC-3 prostate) [µM] | TGI (T-47D breast) [µM] | TGI (UACC-257 melanoma) [µM] | TGI (HCC-2998 colon) [µM] | TGI (SK-MEL-28 melanoma) [µM] | TGI (OVCAR-5 ovarian) [µM] | TGI (HOP-92 NSCLC) [µM] |
| --- | --- | --- | --- | --- | --- | --- | --- | --- | --- | --- | --- | --- | --- |
| CC1C(OC2O[C@@H]3O[C@@]4(C)CC[C@H]5[C@H](C)CC[C@@H](C2C)[C@@]35O4)O[C@@H]2O[C@@]3(C)CC[C@H]4[C@H](C)CC[C@@H]1[C@@]24O3 (stereo partly drawn) | > 50 | > 50 | > 50 | > 50 | > 50 | > 50 | > 50 | > 50 | > 50 | > 50 | > 50 | > 50 |  |
| C[N+](C)(C)CC(=O)N/N=C/c1ccncc1 | > 100 | > 100 | > 100 | > 100 | > 100 | > 100 | > 100 | > 100 | > 100 |  | > 100 | > 100 | > 100 |
| C/C(=N\Nc1nc2cccnc2s1)c1ccccn1 | > 100 | > 100 | 38.6 | > 100 | > 34.6 |  | 30.6 |  |  | 3.18 | > 100 | > 64.4 |  |
| O=C(NCCNCCCNC(=O)c1cc(-c2ccccc2)nc2ccccc12)c1cccc(OCc2ccccc2)c1OCc1ccccc1 |  | 3.48 | 3.21 | 3.24 |  |  | 3.04 | 4.2 | 3.28 | 2.59 | 3.25 | 3.37 | 3.23 |
| CCCCCC/C=C1\CCC(CN2CCOCC2)C1=O (stereo not drawn) | 13.6 | 16.4 |  | 33.4 | 33.4 | 43 |  |  | 29.3 | 35.3 | 30.7 | 37.4 | 34.7 |
| Fc1ccc(-c2sc(-c3cccs3)cc2Cc2cccs2)cc1 |  | > 100 | > 100 | > 100 | > 100 | > 100 |  | > 100 | > 100 | > 100 | > 100 | > 100 | > 100 |
| COc1ccc(C(=O)/C=C/c2ccc(OCCSCCCCCCCCCCSCCOc3ccc(/C=C/C(=O)c4ccc(OC)c(OC)c4)cc3)cc2)cc1OC | > 100 | > 100 | > 100 | > 100 |  | > 100 | > 100 | > 100 | > 100 | > 100 | > 100 |  |  |
| O=C(O)c1ccc(C2SCc3nc4ccccc4n32)cc1 (stereo not drawn) | > 100 | > 100 | > 100 | > 100 | > 100 | > 100 | > 100 |  | > 100 | > 100 | > 100 | > 100 | > 100 |
| CC(=O)OC1COC(N2C(=O)C(=O)c3cc(Br)ccc32)C(OC(C)=O)C1OC(C)=O (stereo not drawn) | > 100 | > 100 |  | > 100 | > 100 | > 100 |  |  | > 100 | > 100 | > 100 |  | > 100 |
| CN1CN(c2ccccc2)C2(CCN(CCC3COc4ccccc4O3)CC2)C1=O (stereo not drawn) | 71.6 | 44.9 | > 100 | 83.9 |  | > 100 | > 100 | 62.3 | 31 | 23.9 | 47.3 | 45.9 |  |
| CCOP(=O)(OCC)/C(C#N)=C/c1cnc[nH]1 | > 100 | > 100 | > 100 | > 100 | > 100 | > 100 | > 100 |  | > 100 | > 100 | > 100 | > 100 | > 100 |
| COP(=O)(OC)C(O)CC(C)C (stereo not drawn) |  | > 100 | > 100 | > 100 | > 100 |  | > 100 | > 100 | > 100 | > 100 | > 100 | > 100 |  |
| Cc1c2ccncc2c(C)c2c1[nH]c1ccc(OCC(F)(F)F)cc12 | 4.2 | 3.91 |  | 2.78 | 3.19 | 3.06 |  |  | 3.42 |  | 3.15 | 2.86 |  |
| COc1ccc(C2CC3(c4ccccc4)ON=C(c4ccccc4)N3c3ccccc3S2)cc1 (stereo not drawn) |  |  | > 100 | > 100 |  | > 100 | > 100 | > 100 | > 100 | > 100 | > 100 | > 100 |  |
| CC(C)(C)C1=CC(=C2C(=O)C(=O)c3ccccc3C2=O)C=C(C(C)(C)C)C1=O |  | > 100 |  | > 100 | > 100 | > 100 |  |  | 80.2 | > 100 | > 100 | > 100 | 82.9 |
| CC(C)(CCCCC(C)(C)[N+](C)(C)C)[N+](C)(C)C | > 100 | > 100 | > 100 | > 100 |  | > 100 | > 100 | > 100 | > 100 | > 100 | > 100 | > 100 |  |
| COc1cc2c(cc1OCCCCOc1cc3c(cc1OC)C(=O)N1CCC[C@H]1C(=O)N3)N=C[C@@H]1CCCN1C2=O | 4.59 | 6.88 | 8.7 | 21.4 | 20.1 | 14.8 | 19.4 | 28.7 | 29.3 | 26.3 | 30.8 | 33 |  |
| COC(=O)CCC(C)C1CCC2C3C(C[C@H](OC(C)=O)[C@]12C)[C@@]1(C)CCC2(C[C@H]1C[C@H]3OC(C)=O)OOC1(CC[C@]3(C)C4C[C@H](OC(C)=O)[C@]5(C)C(C(C)CCC(=O)OC)CCC5C4[C@H](OC(C)=O)C[C@@H]3C1)OO2 (stereo partly drawn) | 99.1 | > 100 | > 100 | > 100 | > 100 | > 100 | > 100 |  | > 100 | > 100 | > 100 | > 100 |  |
| COc1ccccc1/C=C1\NC(=S)N(/C=C2\C(=O)Oc3ccccc3C2=O)C1=O |  |  | > 100 | > 100 | > 100 | > 100 | > 100 |  | > 100 | > 100 | > 100 | > 100 | 53.3 |
